From patent US6403606B1, “Thienopyridine derivatives and their use” (Takeda Chemical Industries Ltd., priority 1996, dated 2002) come the findings set out here.

Turning to `CCNCc1nc2sc3c(c2c(-c2ccc(OC)c(OC)c2)c1Cl)CCN(Cc1ccccc1)C3` [Example 1B, 7-benzyl-3-chloro-4-(3,4,-dimethoxyphenyl)-2-ethylaminomethyl-5,6,7,8-tetrahydrothieno[2,3-b:5,4-c′]dipyridine], the melting point (commonly the temperature of the solid-liquid transition) was 135 to 136 °C.

Take `CCN(CC)Cc1nc2sc3c(c2c(-c2ccc(OC)c(OC)c2)c1Cl)CCN(Cc1ccccc1)C3` [Example 2B, 7-benzyl-3-chloro-2-(N,N-diethylaminomethyl)-4-(3,4-dimethoxyphenyl)-5,6,7,8-tetrahydrothieno[2,3-b:5,4-c′]dipyridine]: the melting point is 150 to 151 °C.

The compound `CCOC(=O)c1c(CN2CCC(C(=O)OCC)CC2)nc2sc3c(c2c1-c1ccc(OC)c(OC)c1)CCN(C(=O)c1ccc(Cl)cc1)C3` [Example 3A, ethyl 7-(4-chlorobenzoyl)-4-(3,4-dimethoxyphenyl)-2-(4-ethoxycarbonylpiperidinomethyl)-5,6,7,8-tetrahydrothieno-[2,3-b:5,4-c′]dipyridine-3-carboxylate] yielded a melting point of 99 to 101 °C.

As for `COc1ccc(-c2c(Cl)c(CNC(C)(C)C)nc3sc4c(c23)CCN(Cc2ccccc2)C4)cc1OC` [Example 3B, 7-benzyl-2-(tert-butylaminomethyl)-3-chloro-4-(3,4-dimethoxyphenyl)-5,6,7,8-tetrahydrothieno[2,3-b:5,4-c′]dipyridine], the melting point was 134 to 135 °C.

In turn, `CCOC(=O)c1c(CN(CC)CC)nc2sc3c(c2c1-c1ccc(Cl)cc1)CCN(C(=O)c1ccccc1)C3` [Example 4A, ethyl 7-benzoyl-4-(4-chlorophenyl)-2-(N,N-diethylaminomethyl)-5,6,7,8-tetrahydrothieno[2,3-b:5,4-c′]dipyridine-3-carboxylate] showed a melting point of 177 to 178 °C.

In turn, `CCC(C)(C)NCc1nc2sc3c(c2c(-c2ccc(OC)c(OC)c2)c1Cl)CCN(Cc1ccccc1)C3` [Example 4B, 2-(tert-amylaminomethyl)-7-benzyl-3-chloro-4-(3,4-dimethoxyphenyl)-5,6,7,8-tetrahydrothieno[2,3-b:5,4-c′]dipyridine] showed a melting point of 128 to 129 °C.

As to `COc1ccc(-c2c(Cl)c(CNC3CC3)nc3sc4c(c23)CCN(Cc2ccccc2)C4)cc1OC` [Example 5B, 7-benzyl-3-chloro-2-(cyclopropylaminomethyl)-4-(3,4-dimethoxyphenyl)-5,6,7,8-tetrahydrothieno[2,3-b:5,4-c′]dipyridine], the melting point was 131 to 132 °C.

In the case of `CCOC(=O)c1c(CN(CC)CC)nc2sc3c(c2c1-c1ccc(Cl)cc1)CCNC3` [Example 6A, ethyl 4-(4-chlorophenyl)-2-(N,N-diethylaminomethyl)-5,6,7,8-tetrahydrothieno[2,3-b:5,4-c′]dipyridine-3-carboxylate], the melting point was 104 to 106 °C.

The compound `COc1ccc(-c2c(Cl)c(COc3ccccn3)nc3sc4c(c23)CCN(Cc2ccccc2)C4)cc1OC` [Example 6B, 7-benzyl-3-chloro-4-(3,4-dimethoxyphenyl)-2-(2-pyridyloxymethyl)-5,6,7,8-tetrahydrothieno[2,3-b:5,4-c′]dipyridine] yielded a melting point of 165 to 167 °C.

The compound `COc1ccc(-c2c(Cl)c(CNC(C)(C)C)nc3sc4c(c23)CCN(C(=O)c2ccccc2)C4)cc1OC` [Example 8B, 7-benzoyl-2-(tert-butylaminomethyl)-3-chloro-4-(3,4-dimethoxyphenyl)-5,6,7,8-tetrahydrothieno[2,3-b:5,4-c′]dipyridine] had a melting point of 204 to 205 °C.

As for `CCOC(=O)c1c(CN(CC)CC)nc2sc3c(c2c1-c1ccc(OC)c(OC)c1)CCN(S(=O)(=O)c1ccccc1)C3` [Example 9A, ethyl 7-benzenesulfonyl-2-(N,N-diethylaminomethyl)-4-(3,4-dimethoxyphenyl)-5,6,7,8-tetrahydrothieno[2,3-b:5,4-c′]dipyridine-3-carboxylate], the melting point lay within 161 to 162 °C.

In the case of `COc1cc(-c2c(Cl)c(CNC(C)(C)C)nc3sc4c(c23)CCN(C(=O)c2ccccc2)C4)ccc1OC(C)C` [Example 9B, 7-benzoyl-2-(tert-butylaminomethyl)-3-chloro-4-(4-isopropoxy-3-methoxyphenyl)-5,6,7,8-tetrahydrothieno[2,3-b:5,4-c′]dipyridine], the melting point fell in the range of 165 to 166 °C.

Consider `COc1ccc(C2(Cl)CC(CNC(C)(C)C)=Nc3sc4c(c32)CCNC4)cc1OC` (stereo not shown) [Example 10B, 2-(tert-butylaminomethyl)-4-chloro-4-(3,4-dimethoxyphenyl)-5,6,7,8-tetrahydrothieno(2,3-b:5,4-c′]dipyridine], for which the melting point fell in the range of 162 to 163 °C.

Compound `COc1cc(-c2c(Cl)c(CNC(C)(C)C)nc3sc4c(c23)CCNC4)ccc1OC(C)C` [Example 11B, 2-(tert-butylaminomethyl)-3-chloro-4-(4-isopropoxy-3-methoxyphenyl)-5,6,7,8-tetrahydrothieno[2,3-b:5,4-c′]dipyridine] registered a melting point of 157 to 158 °C.

Take `COc1ccc(-c2c(Cl)c(CN3CCN(C(C)=O)CC3)nc3sc4c(c23)CCN(Cc2ccccc2)C4)cc1OC` [Example 14B, 2-(4-acetylpiperazin-1-ylmethyl)-7-benzyl-3-chloro-4-(3,4-dimethoxyphenyl)-5,6,7,8-tetrahydrothieno[2,3-b:5,4-c′]dipyridine]: the melting point fell in the range of 183 to 184 °C.

Take `CCOC(=O)c1c2c(cn1CN(CC)CC)C1=C(NC(C(=O)OCc3ccccc3)CC1)[SH]2c1ccc(OC)c(OC)c1` (stereo not shown) [Example 16A, ethyl 2-benzyloxycarbonyl-8-(3,4-dimethoxyphenyl)-6-diethylaminomethyl-2,3-dihydro-1H-pyrrolo[3′,4′:4,5]-thieno[2,3-b]pyridine-7-carboxylate]: the melting point fell in the range of 142 to 143 °C.

`CCOC(=O)c1c2c(cn1Cn1cncn1)C1=C(NC(C(=O)OCc3ccccc3)CC1)[SH]2c1ccc(OC)c(OC)c1` (stereo not shown) [Example 17A, ethyl 2-benzyloxycarbonyl-8-(3,4-dimethoxyphenyl)-2,3-dihydro-6-(1,2,4-triazol-1-ylmethyl)-1H-pyrrolo[3′,4′:4,5]thieno[2,3-b]pyridine-7-carboxylate] yielded a melting point of 166 to 167 °C.

`COc1ccc(-c2c(Cl)c(CNS(=O)(=O)c3ccccc3)nc3sc4c(c23)CCN(Cc2ccccc2)C4)cc1OC` [Example 19B, 7-benzyl-3-chloro-4-(3,4-dimethoxyphenyl)-2-phenylsulfonylaminomethyl-5,6,7,8-tetrahydrothieno[2,3-b:5,4-c′]dipyridine] registered a melting point of 153 to 154 °C.

Take `CCOC(=O)c1c(Cn2cncn2)nc2sc3c(c2c1-c1ccc(OC)c(OC)c1)CCN(C(=O)c1ccccc1)C3` [Example 20A, ethyl 7-benzoyl-4-(3,4-dimethoxyphenyl)-5,6,7,8-tetrahydro-2-(1,2,4-triazol-1-ylmethyl)thieno[2,3-b:5,4-c′]dipyridine-3-carboxylate]: the melting point lay in the range of 193 to 194 °C.

`COc1ccc(-c2c(Cl)c(CNC(=O)Cn3cncn3)nc3sc4c(c23)CCN(Cc2ccccc2)C4)cc1OC` [Example 20B, 7-benzyl-3-chloro-4-(3,4-dimethoxyphenyl)-5,6,7,8-tetrahydro-2-(1,2,4-triazol-1-ylacetylaminomethyl)thieno[2,3-b:5,4-c′]dipyridine]: the melting point was in the range of 101 to 102 °C.

In turn, `CCOC(=O)c1c(Cn2cncn2)nc2sc3c(c2c1-c1ccc(OC)c(OC)c1)CCNC3` [Example 21A, ethyl 4-(3,4-dimethoxyphenyl)-5,6,7,8-tetrahydro-2-(1,2,4-triazol-1-ylmethyl)thieno[2,3-b:5,4-c′]dipyridine-3-carboxylate] gave a melting point of 164 to 165 °C.

`CCOC(=O)c1c(Cc2nc[nH]n2)nc2sc3cnccc3c2c1-c1ccc(OC)c(OC)c1` [Example 22A, ethyl 4-(3,4-dimethoxyphenyl)-2-(1,2,4-triazol-ylmethyl)thieno[2,3-b:5,4-c′]dipyridine-3-carboxylate] had a melting point of 172 to 174 °C.

Compound `COc1ccc(-c2c(Cl)c(CNC(=O)c3cccnc3)nc3sc4c(c23)CCN(Cc2ccccc2)C4)cc1OC` [Example 22B, 7-benzyl-3-chloro-4-(3,4-dimethoxyphenyl)-2-(nicotinoylaminomethyl)-5,6,7,8-tetrahydrothieno[2,3-b:5,4-c′]dipyridine] returned a melting point of 124 to 125 °C.

Compound `CCOC(=O)c1c(CCc2nccn2C)nc2sc3c(c2c1-c1ccc(OC)c(OC)c1)CCN(C(=O)c1ccccc1)C3` [Example 23A, ethyl 7-benzoyl-4-(3,4-dimethoxyphenyl)-5,6,7,8-tetrahydro-2-[2-(1-methylimidazol-2-yl)ethyl]thieno[2,3-b:5,4-c′]dipyridine-3-carboxylate] yielded a melting point of 170 to 217 °C.

`CCOC(=O)c1c(CCc2c[nH]nn2)nc2sc3c(c2c1-c1ccc(OC)c(OC)c1)CCN(C(=O)c1ccccc1)C3` [Example 24A, ethyl 7-benzoyl-4-(3,4-dimethoxyphenyl)-5,6,7,8-tetrahydro-2-[2-(1,2,3-triazol-4-yl)ethyl]thieno[2,3-b:5,4-c′]dipyridine-3-carboxylate]: the melting point lay in the range of 184 to 185 °C.

`CCOC(=O)c1c(CN(C)O)nc2sc3c(c2c1-c1ccc(OC)c(OC)c1)CCN(C(=O)c1ccccc1)C3` [Example 25A, ethyl 7-benzoyl-4-(3,4-dimethoxyphenyl)-2-(N-hydroxy-N-methylaminomethyl)-5,6,7,8-tetrahydrothieno[2,3-b:5,4-c′]dipyridine-3-carboxylate]: the melting point lay within 129 to 130 °C.

For the compound `CCOC(=O)c1c(CCn2cncn2)nc2sc3c(c2c1-c1ccc(OC)c(OC)c1)CCN(C(=O)c1ccc(Cl)cc1)C3` [Example 26A, ethyl 7-(4-chlorobenzoyl)-4-(3,4-dimethoxyphenyl)-5,6,7,8-tetrahydro-2-[2-(1,2,4-triazol-1-yl)ethyl]thieno[2,3-b:5,4-c′]dipyridine-3-carboxylate], the melting point lay within 195 to 197 °C.

For `COc1ccc(-c2c(Cl)c(Cn3cncn3)nc3sc4c(c23)CCN(Cc2ccccc2)C4)cc1OC` [Example 26B, 7-benzyl-3-chloro-4-(3,4-dimethoxyphenyl)-5,6,7,8-tetrahydro-2-(1,2,4-triazol-1-ylmethyl)thieno[2,3-b:5,4-c′]dipyridine], the melting point fell in the range of 165 to 166 °C.
